Source: patent EP0118205A1, “(5-(2-Aminomethyl-imidazol-1-yl)-1,3-dialkyl-1H-pyrazol-4-yl)(aryl)methanones and processes for their production” (WARNER-LAMBERT COMPANY, priority 1983, dated 1984)
Structures can show the parent of a compound that is named as a salt.

Tested on: amnesia produced by an electroconvulsive shock
Assay: Reversal of amnesia produced by electroconvulsive shock (shelf-box foot shock memory test)
Type: in vivo, male mice (Carworth, CF-1 strain)
Conditions: mice, oral
Procedure: The effectiveness of the aforementioned compounds is determined by the test given below which is designed to show the compound's ability to reverse amnesia produced by an electroconvulsive shock.
One hundred male mice (Carworth, CF-1 strain, 19-21 g at time of shipment) are divided into five groups of 20 mice each. Each mouse is placed, one at a time, on a small shelf attached to the outside wall of a test box. In this position the mouse is suspended in space. Therefore, the mouse is motivated to step from the shelf through a conveniently placed small hole into the interior of the box. As soon as the mouse has all four feet within the semidarkened interior of the box, the grid floor of the box is electrified (1.5 milliamps, 3 second duration) to produce a strong pain-fear reaction from the animal. About five seconds thereafter, the mouse is removed from the test box and placed in a group holding cage.
Two hours after the above training, the mice are given a single electroconvulsive shock produced by 20 milliamps delivered for 1.0 seconds through the ears. Immediately thereafter, the mice are returned to the holding cage.
Two hours after the convulsive treatment, the mice are administered orally through a […] with the chemical being assessed. Usually three doses of the chemical will be tested at a time.
One hour after the drug treatment, the mice are tested for memory of the painful foot shock received within the shelf-box apparatus. This testing is accomplished by once again placing each mouse on the small shelf attached to the test box. Any mouse that stays on the shelf for 60 seconds without entering the box is counted as remembering the painful foot shock received within the box five hours earlier. Any mouse entering the box within the 60-second period is counted as having amnesia for the painful event.
The five groups of mice are treated as follows:
The percentage of amnesia reversal is determined as follows for each drug group: [formula]
The following table reports the percent of amnesia reversal of orally administered [(5-(2-aminomethyl)-5-methyl-lH- imidazol-1-yl)-1,3-dimethyl-lH-pyrazol-4-yi](2-chlorophenyl)methanone dihydrochloride.

Cc1nn(C)c(-n2c(C)cnc2CN)c1C(=O)c1ccccc1Cl [Example 1, [5-((2-aminomethyl)-5-methyl-lH-imidazol-1-yl)-1,3-dimethyl-1H-pyrazol-4-yl] (2-chlorophenyl) methanone dihydrochloride]
% Amnesia Reversal (dose 0.63 mg/kg): 20% | Rating (dose 0.63 mg/kg): N (0 to 29 percent (inactive = N)) | % Amnesia Reversal (dose 1.25 mg/kg): 40% | Rating (dose 1.25 mg/kg): A (40 percent or more (active = A)) | % Amnesia Reversal (dose 2.50 mg/kg): 40% | Rating (dose 2.50 mg/kg): A (40 percent or more (active = A)) | % Amnesia Reversal (dose 5.00 mg/kg): 62% | Rating (dose 5.00 mg/kg): A (40 percent or more (active = A)) | % Amnesia Reversal (dose 20.00 mg/kg): 87% | Rating (dose 20.00 mg/kg): A (40 percent or more (active = A)) | % Amnesia Reversal (dose 80.00 mg/kg): 44% | Rating (dose 80.00 mg/kg): A (40 percent or more (active = A))

Cc1nn(C)c(-n2c(C)cnc2CN(C)C)c1C(=O)c1ccccc1Cl [Example 2]
Percent Amnesia Reversal (dose 1 mg/kg): 64% | Percent Amnesia Reversal (dose 10 mg/kg): 64% | Percent Amnesia Reversal (dose 100 mg/kg): 85% | Percent Amnesia Reversal (Rating) (dose 1 mg/kg): A (40 percent or more (active = A)) | Percent Amnesia Reversal (Rating) (dose 10 mg/kg): A (40 percent or more (active = A)) | Percent Amnesia Reversal (Rating) (dose 100 mg/kg): A (40 percent or more (active = A))

Cc1nn(C)c(-n2ccnc2CN2CCCC2)c1C(=O)c1ccccc1Cl [Example 3, (2-chlorophenyl)-[1,3-dimethyl-5-[2-(1-pyrrolidinylmethyl)-1H-imidazol--yl]-1H-pyrazol-4-yl]methanone dihydrochloride]
Percent Amnesia Reversal (dose 1 mg/kg): 79% | Percent Amnesia Reversal (dose 10 mg/kg): 27% | Percent Amnesia Reversal (dose 100 mg/kg): 25% | Percent Amnesia Reversal (Rating) (dose 1 mg/kg): A (40 percent or more (active = A)) | Percent Amnesia Reversal (Rating) (dose 10 mg/kg): C (25 to 39 percent (borderline = C)) | Percent Amnesia Reversal (Rating) (dose 100 mg/kg): C (25 to 39 percent (borderline = C))

Cc1nn(C)c(-n2c(CN3CCN(C)CC3)nc(C)c2C)c1C(=O)c1ccccc1Cl [Example 4, (2-Chlorophenyl)[1,3-dimethyl-5-[4,5-dimethyl-2-[(4-mthyl-piperazin-1-yl)methyl]-1H-imidazol-1-yl]-1H-pyrazol-4-yl]methanone]
Percent Amnesia Reversal (dose 1 mg/kg): 36% | Percent Amnesia Reversal (dose 10 mg/kg): 91% | Percent Amnesia Reversal (dose 100 mg/kg): 54% | Percent Amnesia Reversal (Rating) (dose 1 mg/kg): C (25 to 39 percent (borderline = C)) | Percent Amnesia Reversal (Rating) (dose 10 mg/kg): A (40 percent or more (active = A)) | Percent Amnesia Reversal (Rating) (dose 100 mg/kg): A (40 percent or more (active = A))
